Assay results: patent US20250304811A1, “Ink Jet Ink Composition And Recording Method” (SEIKO EPSON CORPORATION, priority 2024, published 2025)

Experiment: Solubility in water
Details: 20° C., 100 g of water

Q: Which miscibility with water does the source give for `COCCOC` [ethylene glycol dimethyl ether] here?
A: completely miscible with water
